Like-named read-outs stand apart in the source and are kept apart here. *1 amine or outer side, *2 acyl side, *3 side chain or, on linkers, in order; H or OH if unused. Where a SMILES comes first, the peptide text is derived from it. Bridges are numbered along the chain shown (N, C = ends). Roman numbers before positions name the chains, in order. [ ]: non-standard residue; d: D form. Actinocin(9to1) = Cc1c2oc3c(C)ccc(C(=O)[*:1])c3nc-2c(C(=O)[*:2])c(N)c1=O; NMeV = CN[C@H](C(=O)O)C(C)C; Sar = CNCC(=O)O

Common to all, as to format: cell-based
One assay deals with GIST-T1 cells. Put plainly: Quantitative drug screen, CellTiter-Blue cell viability, GIST-T1. As to conditions: read-out: IC50 GIST-T1. (Resazurin is reduced to fluorescent resorufin, in cell work by metabolically active cells.)
In the next assay the test system is ULTR cells. Kind of assay: Quantitative drug screen, CellTiter-Blue cell viability, ULTR. As to conditions: read-out: IC50 ULTR.
The test system of assay [1] is Hs 919.T. cells. Kind of assay: Drug screen assay in Hs 919.T. cell line at 1 μM. Conditions: 72 h; for inhibition at 1 µM: read-out: inhibition against Hs 919.T. cell proliferation.
Assay [2] has as its system GIST 882 cells. Kind of assay: Quantitative drug screen, CellTiter-Blue cell viability, GIST 882. As to conditions: Homo sapiens, GIST882, 72 h, read-out: IC50 GIST 882.
Assay [3] has as its system GIST T1-10R cells. Kind of assay: Quantitative drug screen, CellTiter-Blue cell viability, GIST T1-10R. As to conditions: 72 h, read-out: IC50 GIST TI-10R.
Assay [4] deals with GIST 882 cells. Kind of assay: Hit validation cell proliferation, 12-point dose-response, GIST 882. Conditions: Homo sapiens, GIST882, 72 h, read-out: IC50 GIST 882.
The test system of assay [5] is GIST T1-10R cells. Put plainly: Hit validation cell proliferation, 12-point dose-response, GIST T1-10R. Conditions: 72 h, read-out: IC50 GIST T1-10R.
For assay [6], the system named is Hs 919.T. cells. Put plainly: Hit validation cell proliferation, 12-point dose-response, Hs 919.T. As to conditions: read-out: IC50 Hs 919.T.

Consider Plicamycin, for which the figures for the IC50 in the assay with GIST-T1 cells and in the assay on ULTR cells were 350 nM and 150 nM, respectively. Besides, the “inhibition against Hs 919.T. cell proliferation” value in the assay on Hs 919.T. cells [1] (1 μM drug) was “greater than 50%”.

For `O=C1c2c(O)ccc(O)c2C(=O)c2c(NCCNCCO)ccc(NCCNCCO)c21` [Mitoxantrone], the IC50 with GIST 882 cells [2] is 80 nM; with GIST T1-10R cells [3] it was over 1000 nM; in the assay with ULTR cells (72 h), under 70 nM. For the same compound, in the assay with Hs 919.T. cells [1], the inhibition at 1 µM is over 50%.

Turning to `CC(=O)[C@]1(O)Cc2c(O)c3c(c(O)c2[C@@H](O[C@H]2C[C@H](N)[C@H](O)[C@H](C)O2)C1)C(=O)c1ccccc1C3=O` [Idarubicin], the IC50 in the assay on GIST 882 cells [2] was 50 nM; in the assay with GIST T1-10R cells [3], 690 nM; in the assay on ULTR cells (72 h), under 70 nM; in the assay on GIST 882 cells [4], 130 ± 40 nM; in the assay with GIST T1-10R cells [5], 50 ± 10 nM; in the assay on Hs 919.T. cells [6] it was 70 ± 3 nM. In the assay on Hs 919.T. cells [1], the inhibition at 1 µM was over 50%.

Consider `C[C@@H]1O[C@@H](O[C@H]2C[C@@H](O)[C@]3(CO)[C@H]4[C@H](O)C[C@]5(C)[C@@H](C6=CC(=O)OC6)CC[C@]5(O)[C@@H]4CC[C@]3(O)C2)[C@H](O)[C@H](O)[C@H]1O` [Ouabain], for which the values for the IC50 in the assay on GIST 882 cells [2], with GIST T1-10R cells [3] and in the assay with ULTR cells (72 h) were 30 nM, 240 nM and under 70 nM, respectively.

As to `Nc1nc(Cl)nc2c1ncn2[C@H]1C[C@H](O)[C@@H](CO)O1` [Cladribine], the IC50 with GIST 882 cells [2] was 760 nM; with GIST T1-10R cells [3] it was over 1000 nM; in the assay on ULTR cells (72 h) it was 540 nM.

With `CN(C)c1ccc(C(=C2C=CC(=[N+](C)C)C=C2)c2ccc(N(C)C)cc2)cc1` [Gentian Violet], the concentration for half-maximal inhibition (IC50) in the assay with GIST 882 cells [2] was 250 nM; in the assay on GIST T1-10R cells [3], 960 nM; with ULTR cells (72 h), 160 nM.

As for `C[C@H]1O[C@@H](O[C@H]2[C@@H](O)C[C@H](O[C@H]3[C@@H](O)C[C@H](O[C@H]4CC[C@@]5(C)[C@H](CC[C@@H]6[C@@H]5C[C@@H](O)[C@]5(C)[C@@H](C7=CC(=O)OC7)CC[C@]65O)C4)O[C@@H]3C)O[C@@H]2C)C[C@H](O)[C@@H]1O` [Digoxin], the half-inhibitory concentration (IC50) with GIST 882 cells [2] stood at 790 nM; in the assay on GIST T1-10R cells [3], 930 nM; in the assay with ULTR cells (72 h), 160 nM. Also, the inhibition at 1 µM in the assay on Hs 919.T. cells [1] was over 50%.

Regarding `C[C@H]1O[C@@H](O[C@H]2[C@@H](O)C[C@H](O[C@H]3[C@@H](O)C[C@H](O[C@H]4CC[C@@]5(C)[C@H](CC[C@@H]6[C@@H]5CC[C@]5(C)[C@@H](C7=CC(=O)OC7)CC[C@]65O)C4)O[C@@H]3C)O[C@@H]2C)C[C@H](O)[C@@H]1O` [Digitoxin], the half-maximal inhibitory concentration (IC50) with GIST 882 cells [2] was 160 nM; in the assay on GIST T1-10R cells [3] it was over 1000 nM; in the assay with ULTR cells (72 h) it was under 70 nM.

As for `CCOC(=O)n1ccn(C)c1=S` [Carbimazole], the half-inhibitory concentration (IC50) was 50 nM in the assay with GIST 882 cells [2], 180 nM in the assay on GIST T1-10R cells [3] and under 70 nM in the assay on ULTR cells (72 h).

With `COc1cc([C@@H]2c3cc4c(cc3[C@@H](O[C@@H]3O[C@@H]5CO[C@@H](C)O[C@H]5[C@H](O)[C@H]3O)[C@H]3COC(=O)[C@H]23)OCO4)cc(OC)c1O` [Etoposide], the half-inhibitory concentration (IC50) was 30 nM in the assay on GIST 882 cells [2], over 1000 nM with GIST T1-10R cells [3] and over 1000 nM in the assay with ULTR cells (72 h).

`Nc1nc(F)nc2c1ncn2[C@@H]1O[C@H](COP(=O)(O)O)[C@@H](O)[C@@H]1O` [Fludarabine Phosphate]: the half-maximal inhibitory concentration (IC50) was over 1000 nM with GIST 882 cells [2]; 810 nM with GIST T1-10R cells [3]; over 1000 nM in the assay with ULTR cells (72 h); 540 ± 30 nM in the assay on GIST 882 cells [4]; 840 ± 200 nM with GIST T1-10R cells [5].

In the case of `CC(C)C[C@H](NC(=O)[C@H](Cc1ccccc1)NC(=O)c1cnccn1)B(O)O` [Bortezomib], the 50% inhibitory concentration (IC50) is under 70 nM in the assay on GIST 882 cells [2]; 500 nM in the assay with GIST T1-10R cells [3]; under 70 nM with ULTR cells (72 h); 2 ± 0.3 nM in the assay on GIST 882 cells [4]; 1 ± 1 nM with GIST T1-10R cells [5]; 150 ± 10 nM with Hs 919.T. cells [6]. Moreover, in the assay with Hs 919.T. cells [1], the inhibition at 1 µM was over 50%.

For `COc1cccc2c1C(=O)c1c(O)c3c(c(O)c1C2=O)C[C@@](O)(C(C)=O)C[C@@H]3O[C@H]1C[C@H](N)[C@H](O)[C@H](C)O1` [Daunorubicin], the half-maximal inhibitory concentration (IC50) was 170 nM with GIST 882 cells [2], over 1000 nM in the assay with GIST T1-10R cells [3] and under 70 nM with ULTR cells (72 h). For the same compound, the inhibition at 1 µM in the assay on Hs 919.T. cells [1] is over 50%.

Turning to `C#C[C@]1(O)CC[C@H]2[C@@H]3CCC4=Cc5oncc5C[C@]4(C)[C@H]3CC[C@@]21C` [Danazol], the IC50 in the assay with GIST 882 cells [2] was 670 nM; in the assay with GIST T1-10R cells [3] it was over 1000 nM; in the assay on ULTR cells (72 h) it was over 1000 nM.

As to `Cc1cn(-c2cc(NC(=O)c3ccc(C)c(Nc4nccc(-c5cccnc5)n4)c3)cc(C(F)(F)F)c2)cn1` [Nilotimb], the IC50 in the assay with GIST-T1 cells (primary screen, 72 h, 10 μM to […] twofold dilutions, * = IC50 < 0.07 μM and drug showed no dose response) came to 380 nM.

As to `COc1cccc2c1C(=O)c1c(O)c3c(c(O)c1C2=O)C[C@@](O)(C(=O)CO)C[C@@H]3O[C@H]1C[C@H](N)[C@H](O)[C@H](C)O1` [Doxorubicin], the IC50 in the assay with GIST 882 cells [2] is 80 nM; in the assay with GIST T1-10R cells [3], over 1000 nM; in the assay with ULTR cells (72 h), 160 nM. The inhibition at 1 µM with Hs 919.T. cells [1] was over 50%.

For `COc1cc(NS(C)(=O)=O)ccc1Nc1c2ccccc2nc2ccccc12` [Amsacrine], the IC50 with GIST 882 cells [2], in the assay with GIST T1-10R cells [3] and in the assay with ULTR cells (72 h) was over 1000 nM in each case.

`CC(=O)O[C@H]1C(=O)[C@@]2(C)[C@H]([C@H](OC(=O)c3ccccc3)[C@]3(O)C[C@H](OC(=O)[C@H](O)[C@@H](NC(=O)c4ccccc4)c4ccccc4)C(C)=C1C3(C)C)[C@]1(OC(C)=O)CO[C@@H]1C[C@@H]2O` [Paclitaxel]: the results for the IC50 in the assay with GIST 882 cells [2], with GIST T1-10R cells [3] and in the assay on ULTR cells (72 h) were over 1000 nM, over 1000 nM and 200 nM, respectively.

In the case of `CCN(CC)CCCC(C)Nc1ccnc2cc(Cl)ccc12` (centres unmarked) [Chloroquine], the concentration for half-maximal inhibition (IC50) in the assay with GIST 882 cells [2] is 460 nM; in the assay on GIST T1-10R cells [3] it was over 1000 nM; with ULTR cells (72 h), over 1000 nM.

`COC(=O)Nc1nc2ccc(C(=O)c3ccccc3)cc2[nH]1` [Mebendazole]: the IC50 in the assay with GIST 882 cells [2] was over 1000 nM; with GIST T1-10R cells [3], over 1000 nM; in the assay on ULTR cells (72 h) it was 730 nM.

For `Cc1c2oc3c(C)ccc(C(=O)N[C@@H]4C(=O)N[C@H](C(C)C)C(=O)N5CCC[C@H]5C(=O)N(C)CC(=O)N(C)[C@@H](C(C)C)C(=O)O[C@@H]4C)c3nc-2c(C(=O)N[C@@H]2C(=O)N[C@H](C(C)C)C(=O)N3CCC[C@H]3C(=O)N(C)CC(=O)N(C)[C@@H](C(C)C)C(=O)O[C@@H]2C)c(N)c1=O` [Dactinomycin] (I: T[dV]P[Sar][NMeV] / II: T[dV]P[Sar][NMeV]; ester I:1-I:C, II:1-II:C; linker I:N-II:N via Actinocin(9to1)), the IC50 with GIST 882 cells [2] was under 70 nM; in the assay on GIST T1-10R cells [3] it was over 1000 nM; with ULTR cells (72 h), under 70 nM. In the assay with Hs 919.T. cells [1], the inhibition at 1 µM is over 50%.

Take `Nc1nc(Cl)nc2c1ncn2[C@@H]1O[C@H](CO)[C@@H](O)[C@@H]1F` [Clofarabine]: the 50% inhibitory concentration (IC50) with GIST 882 cells [2] was 990 nM; with GIST T1-10R cells [3] it was over 1000 nM; with ULTR cells (72 h) it was 180 nM.

Regarding `CCCSc1ccc2nc(NC(=O)OC)[nH]c2c1` [Albendazole], the IC50 is over 1000 nM with GIST 882 cells [2], over 1000 nM in the assay on GIST T1-10R cells [3] and 320 nM in the assay on ULTR cells (72 h).

Turning to `CC[C@@]1(O)C(=O)OCc2c1cc1n(c2=O)Cc2cc3c(CN(C)C)c(O)ccc3nc2-1` [Topotecan], the IC50 in the assay with GIST 882 cells [2] was 440 nM; with GIST T1-10R cells [3] it was over 1000 nM; in the assay with ULTR cells (72 h), 90 nM.

As to `CCC1=C[C@@H]2CN(C1)Cc1c([nH]c3ccccc13)[C@@](C(=O)OC)(c1cc3c(cc1OC)N(C)[C@H]1[C@@](O)(C(=O)OC)[C@H](OC(C)=O)[C@]4(CC)C=CCN5CC[C@]31[C@@H]54)C2` [Vinorelbine], the IC50 with GIST 882 cells [2] is over 1000 nM; with GIST T1-10R cells [3], over 1000 nM; in the assay with ULTR cells (72 h), 80 nM. Also, the inhibition at 1 µM in the assay on Hs 919.T. cells [1] is over 50%.

Turning to `COc1cc([C@@H]2c3cc4c(cc3[C@@H](O[C@@H]3O[C@@H]5CO[C@@H](c6cccs6)O[C@H]5[C@H](O)[C@H]3O)[C@H]3COC(=O)[C@H]23)OCO4)cc(OC)c1O` [Teniposide], the IC50 in the assay on GIST 882 cells [2] is 90 nM; with GIST T1-10R cells [3], over 1000 nM; with ULTR cells (72 h) it was 190 nM.

A word on the IC50: it is the midpoint of a concentration-inhibition curve.
